Source: patent US9321795B2, “Use of hydroxycinnamaldehyde glycoside derivatives for treating glomerulonephritis” (National Defense Medical Center, priority 2014, dated 2016)

Assays:
[1] = test system: LPS induced mouse GN model; assay: Urine protein and serum BUN (renal function) in LPS induced mouse GN model; assay type: in vivo; conditions: LPS induced GN C57BL/6 mice
Description: (§1) Experiments were performed on 8-week-old female C57BL/6 mice. The mice were separated into 3 groups at 8-weeks old. One of the groups were injected intravenously with normal saline to be used as normal controls, where the pathological control group and the GN disease treatment group by the cinnamaldehyde derivative of the invention were intraperitoneally injected with […] Salmonella LPS (Sigma, USA) (Am J Physiol Renal Physiol, 296: F1088-1099, 2009; Nephron, 84: 167-176, 2000; Nephron Exp Nephrol, 112: e81-91, 2009) twice a week, continuously for 7 weeks for disease induction. Starting two days before disease induction, the GN disease treatment group was intraperitoneally injected with the cinnamaldehyde derivative of the invention at a daily dose of 30 mg/ml for continuous 7 weeks, while the pathological control group was given placebo daily through intraperitoneal injection. Urine samples were collected in metabolic cages every week. Mice were sacrificed on 7th week after the disease induction. Blood, kidneys, spleen and liver were collected and stored properly for further analysis.
Serum blood urea nitrogen (BUN) and proteinuria were used to assess mice kidney function. Serum blood urea nitrogen (BUN) measurement of serum collected through the eye socket was done through a tester (Fuji DRI-CHEM 3000) with a test specimen (Fuju DRI-CHEM SLIDE). […]

glomeruli of GN mice = assay: Renal histopathology (H&E) in LPS induced mouse GN model; assay type: in vivo; conditions: i.p. daily 30 mg/ml, 7 weeks, FIG. 2
Description: as §1
To evaluate the renal histological changes, 10% formalin was used to fix the tissues, and sections were prepared and stained with hematoxylin and eosin (H&E) and observed under microscope. Changes in the tissues were analyzed by semi-quantitation. Items evaluated include: (1) cell density changes in glomerulus; (2) glomerulus fibrosis; (3) cell necrosis in glomerulus; (4) formation of crescent of glomerulonephritis. According to the ratio of glomeruli having pathological changes, 0 to 4 points were given as scores. 25 glomeruli were measured for each group and the sum of the points represents the renal histological changes. Secondly, mesenchymal and renal tubular atrophy, erythrocyte and protein granule sedimentation in renal tubules and mesenchymal inflammation were also evaluated.

macrophage (F4/80) = assay: Immunohistochemistry of kidney, macrophage marker F4/80; assay type: in vivo, mouse; conditions: LPS induced GN mice; i.p. daily 30 mg/ml, 7 weeks; IHC; vs GN disease group; FIG. 3(A),(D),(E)
Description: as §1
(§2) In addition, to carry out immunohistochemistry (IHC) analysis, tissue fixation, paraffin-embedding, sectioning, rehydration and antigen retrieval were done with routine procedures, and 3% H2O2 was used to remove endogenous peroxidase. […]

T cell (CD3) = assay: Immunohistochemistry of kidney, T cell (CD3) infiltration; assay type: in vivo, mouse; conditions: LPS induced GN mice; i.p. daily 30 mg/ml, 7 weeks; IHC; FIG. 3(A),(B),(C)
Description: as §1, §2

NF-κB = assay: Immunohistochemistry of kidney, NF-κB expression; assay type: in vivo, mouse; conditions: LPS induced GN mice; i.p. daily 30 mg/ml, 7 weeks; IHC; FIG. 4(A),(B)
Description: as §1, §2

spleen cells = assay: Flow cytometry of T cell and B cell activation in spleen cells; assay type: in vivo, mouse; conditions: LPS induced GN mice, i.p. daily 30 mg/ml, 7 weeks
Description: as §1
Mice spleens were taken out, grinded, rinsed and centrifuged to obtain spleen cells. To carry out mice inflammation reaction analysis, 1×10^6 cells were taken and reacted with anti-mouse CD3-FITC antibody, anti-mouse […] antibody anti-mouse CD8-PE, anti-mouse CD19-FITC antibody and anti-mouse CD69-PE antibody (all purchased from BD Pharmingen, CA) respectively in the dark under room temperature for 30 minutes, and analyzed with flow cytometry (Beckton Dickinson, Calif.).

NF-κB p65 = NF-κB p65 activity in kidney tissues (ELISA); assay type: in vivo, mouse; conditions: LPS induced GN mice, i.p. daily 30 mg/ml, 7 weeks, FIG. 4(C)
Description: as §1, with “Blood, kidneys, spleen and liver were collected and stored properly for further analysis.” left out
Renal cortical tissues were taken and extracted for nuclear protein with nucleus extraction kit (Active Motif, Japan), and nuclear proteins were taken to detect NF-κB p65 activity after protein quantitation. […] Lastly, ELISA reader (Bio-Tek, USA) was used to detect OD 450 nm absorption and the values were converted to sample concentration according to the standard curve.

IL-6 = IL-6 protein in kidney tissue (ELISA); assay type: in vivo, mouse; conditions: LPS induced GN mice, i.p. daily 30 mg/ml, 7 weeks, FIG. 4(D)
Description: as §1
(§3) ELISA reader (Bio-Tek, USA) was used to detect OD 450 nm absorption and the values were converted to sample concentration according to the standard curve.

IL-1β [2] = assay: Mature IL-1β in renal cortical protein (ELISA); assay type: in vivo, mouse; conditions: LPS induced GN mice, i.p. daily 30 mg/ml, 7 weeks, FIG. 5(H)
Description: as §1, §3

NLRP3 = assay: Real-time PCR of kidney tissue, NLRP3; assay type: in vivo, mouse; conditions: LPS induced GN mice, i.p. daily 30 mg/ml, 7 weeks, FIG. 5(A)-(D)
Description: as §1
(§4) RNA was extracted from kidney tissues, reverse transcribed to cDNA and Real-Time PCR (Applied Biosystems) was carried out. Items determined include: IL-6, NLRP3, caspase-1, IL-1β and IL-18, where GAPDH gene expression levels were used to carry out the internal correction.

caspase-1 [3] = assay: Real-time PCR of kidney tissue, caspase-1; assay type: in vivo, mouse; conditions: LPS induced GN mice, i.p. daily 30 mg/ml, 7 weeks, FIG. 5(A)-(D)
Description: as §1, §4

IL-1β [4] = assay: Real-time PCR of kidney tissue, IL-1β; assay type: in vivo, mouse; conditions: LPS induced GN mice, i.p. daily 30 mg/ml, 7 weeks, FIG. 5(A)-(D)
Description: as §1, §4

IL-18 = assay: Real-time PCR of kidney tissue, IL-18; assay type: in vivo, mouse; conditions: LPS induced GN mice, i.p. daily 30 mg/ml, 7 weeks, FIG. 5(A)-(D)
Description: as §1, §4

caspase-1 [5] = assay: Western blot of renal cortical proteins, caspase-1; assay type: in vivo, mouse; conditions: LPS induced GN mice, i.p. daily 30 mg/ml, 7 weeks
Description: as §1
Renal cortical tissues were cut to pieces and placed in buffer, and grinding with sonication was used to lyse the cells. After centrifugation, the supernatant was preserved, and protein concentration was measured with protein concentration analyzing kit (BCA protein Assay Kit, PIERCE). […]

TLR4 = assay: Reverse-transcription PCR, TLR4 mRNA; assay type: in vivo, mouse; conditions: LPS induced GN mice, i.p. daily 30 mg/ml, 7 weeks, semi-quantitated, FIG. 6
Description: as §1
(§5) Reverse-transcription PCR was used to evaluate and semi-quantitate TLR4 and its following adaptin Myd88 mRNA expression. […]

MyD88 = assay: Reverse-transcription PCR, MyD88 mRNA; assay type: in vivo, mouse; conditions: LPS induced GN mice, i.p. daily 30 mg/ml, 7 weeks, semi-quantitated, FIG. 6
Description: as §1, §5

[6] = Drug safety by weekly weight change of mice; assay type: in vivo, mouse; conditions: LPS induced GN mice, i.p. daily 30 mg/ml, 7 weeks; for weight change of mice: recorded each week, compared to normal control group, FIG. 7
Description: as §1
During the experiment processes, the drug safety of the cinnamaldehyde derivative was assessed through recording the weight change of mice each week.

For O=CC=Cc1ccc(OC2OC(CO)C(O)C(O)C2O)cc1 (centres unmarked) [cinnamaldehyde derivative, 4-hydroxyphenylacrylaldehyde glycoside], the “serum blood urea nitrogen (BUN)” value ([1]; i.p. daily 30 mg/ml for 7 weeks, vs pathological control group, FIG. 1(B)) was “significantly lower”, the “urine protein content (proteinuria)” value ([1]; i.p. daily dose of 30 mg/ml for 7 weeks, vs disease group, *p<0.05, FIG. 1(A)) was “reduce proteinuria” and the glomerular fibrosis (glomeruli of GN mice) was “no fibrosis condition occurrence was observed”. For the same compound, the glomerular proliferation (glomeruli of GN mice) was “significantly ameliorated”, the lymphocyte infiltration (glomeruli of GN mice) was “reduced” and the “macrophage (F4/80) staining in kidney” value (macrophage (F4/80)) was “significantly less”. For the same compound, the “T lymphocyte (CD3) infiltration in glomeruli” value (T cell (CD3)) was “significantly lowered”, the “NF-κB expression in kidney tissue” value (NF-κB) was “reduce its expression level” and the “Helper T cells (CD4+) activation ratio in spleen cells” value (spleen cells; ***p<0.005, FIG. 3(G)) was “significantly ameliorated”. For the same compound, the “T cell (CD3+) activation in spleen cells” value (spleen cells; FIG. 3(F)) was “showed the tendency of reduction”, the “B cell (CD19+) activation in spleen cells” value (spleen cells; FIG. 3(H)) was “no significant difference” and the “NF-κB p65 content (activation) in renal cortical proteins” value (NF-κB p65) was “lower its activation level”. For the same compound, the “IL-6 protein expression level in kidney tissue” value (IL-6) was “reduce IL-6 expression”, the “amount of mature IL-1β” value (IL-1β [2]) was “significantly decreased” and the “amount of mature IL-1β” value (IL-1β [2]; listed as hydroxycinammaldehde glycoside derivate) was “significantly increased in GN disease group compared to hydroxycinammaldehde glycoside derivate treated GN group”. The “NLRP3 gene expression level in kidney tissue” value (NLRP3) was “significantly reduced”, the “caspase-1 gene expression level in kidney tissue” value (caspase-1 [3]) was “significantly reduced” and the “IL-1β gene expression level in kidney tissue” value (IL-1β [4]) was “significantly reduced”. For the same compound, the “IL-18 gene expression level in kidney tissue” value (IL-18) was “significantly reduced”, the “matured caspase-1 expression level” value (caspase-1 [5]; FIG. 5(E)) was “higher in the disease group than in the cinnamaldehyde derivative treatment group” and the pro-caspase-1 expression level (caspase-1 [5]; FIG. 5(E)-(G)) was “reduced”. The “TLR4 mRNA expression level” value (TLR4) was “reduced”, the “MyD88 mRNA expression level” value (MyD88) was “reduced” and the side-effects in animals ([6]; judged from weight change) was “did not cause obvious side-effects”. For the same compound, the “weight change of mice” value ([6]; listed as hydroxycinammaldehde glycoside derivative) was “does not result in weight loss” and the “weight change of mice” value ([6]; listed as hydroxycinnamaldehyde derivative) was “stable increase in their bodyweight”.
